Source: ChEMBL document CHEMBL1146913, “Symmetrical and unsymmetrical analogues of isoxyl; active agents against Mycobacterium tuberculosis” (2006)
≈ marks a conversion by molar mass, not a printed value. Calls of active or inactive are those of the source. No cut-off for these calls is given here.

Key:
[1] = system: Mycobacterium tuberculosis; assay: Inhibition of oleate production in Mycobacterium bovis BCG; format: functional, variant bovis BCG; conditions: for inhibition: variant bovis BCG
[2] = system: Mycobacterium tuberculosis; assay: Antibacterial activity against Mycobacterium bovis BCG; format: functional; conditions: variant bovis BCG

Compound	Inhibition [1] [%]	MIC99 [2] [µg/mL]	inhibition [1]
CCCCOc1ccc(NC(=S)Nc2ccc(OCCCC)cc2)cc1	94.25	0.5 (≈ 1.34 µM)	
CCCCOc1ccc(NC(=S)Nc2ccc(SCCC)cc2)cc1		0.06 (≈ 0.16 µM)	inactive
CC(C)CCOc1ccc(NC(=S)Nc2ccc(OCCC(C)C)cc2)cc1 [TIOCARLIDE]	61.02	1.1 (≈ 2.75 µM)	
CC(C)COc1ccc(NC(=S)Nc2ccc(OCC(C)C)cc2)cc1	51.62	0.9 (≈ 2.42 µM)	
CC(C)CCOc1ccc(NC(=S)Nc2ccc(OCC(C)C)cc2)cc1	19.24	0.9 (≈ 2.33 µM)	
CCCCOc1ccc(NC(=S)Nc2ccc(CCCC)cc2)cc1		0.7 (≈ 1.96 µM)	inactive
CCCSc1ccc(NC(=S)Nc2ccc(Cc3ccccc3)cc2)cc1		1.75 (≈ 4.46 µM)	inactive
CCCCc1ccc(NC(=S)Nc2ccc(OCCC)cc2)cc1		0.06 (≈ 0.175 µM)	inactive
CC(C)CSc1ccc(NC(=S)Nc2ccc(SCC(C)C)cc2)cc1		0.6 (≈ 1.48 µM)	inactive
CCCCOc1ccc(NC(=S)Nc2ccc(OCC(C)C)cc2)cc1	63.99	0.6 (≈ 1.61 µM)	
CCCCc1ccc(NC(=S)Nc2ccc(OCCC(C)C)cc2)cc1	14.82	0.6 (≈ 1.62 µM)	
CCCCOc1ccc(NC(=S)Nc2ccc(Cc3ccccc3)cc2)cc1	66.15	1.5 (≈ 3.84 µM)	
CCCCOc1ccc(NC(=S)Nc2ccc(SCC(C)C)cc2)cc1	17.75	0.7 (≈ 1.8 µM)	
CCCSc1ccc(NC(=S)Nc2ccc(OCCC(C)C)cc2)cc1	53.32	0.5 (≈ 1.29 µM)	
CCCCc1ccc(NC(=S)Nc2ccc(CCCC)cc2)cc1		0.075 (≈ 0.22 µM)	inactive
CC(C)CCOc1ccc(NC(=S)Nc2ccc(Cc3ccccc3)cc2)cc1	48.83	1.1 (≈ 2.72 µM)	
CCCOc1ccc(NC(=S)Nc2ccc(OCCC)cc2)cc1	90.76	0.5 (≈ 1.45 µM)	
CCCCOc1ccc(NC(=S)Nc2ccc(OCCC(C)C)cc2)cc1	79.96	0.4 (≈ 1.03 µM)	
